From article PMC12305873, “Chlorinated biscoumarins inhibit chikungunya virus replication in cell-based and animal models” (Emerging Microbes & Infections, 2025)
Entries after “also recorded” stand apart in the source; their conditions may differ.

Legend:
C57BL/6 mice [1] = assay: Multiple-dose toxicity in mice; settings: for Activity scores / behaviour / Creatinine / Histopathology of liver tissues / Histopathology of renal tissues: compound 3 250 mg/kg oral BID 3 days, ribavirin 50 mg/kg BID I.P.
CHIKV [2] = assay: In vivo anti-CHIKV efficacy, CHIKV-induced arthritis mouse model; settings: for PMN infiltration in footpad (H&E), day 1 / PMN infiltration in footpad (H&E), days 2 and 3: compounds single oral 250 mg/kg, ribavirin 50 mg/kg BID IP; for Foot swelling and activity vs vehicle group: single oral 250 mg/kg at 24 h after infection, transient, not significantly different from vehicle
[3] = test system: dengue virus NS5 methyltransferase (MTase); set-up: method as in Loeanurit et al., under review; settings: targeting the SAM binding site; ref Loeanurit et al., under review; cited from earlier work
[4] = Pharmacokinetic study in mice; settings: for AUC / AUC(0-inf) / AUC(0-t) / CL/F / MRT inf / MRT last / Tmax / Cmax / half-life: C57BL/6, mouse, in vivo, po; for AUC / AUC(0-inf) / AUC(0-t) / CL/F / MRT inf / MRT last / Tmax / Cmax / half-life / HL (half-life): 250 mg/kg; for Cmax / half-life / Time within which plasma concentration fell below EC90 and EC50 / AUC_% Extrap_obs / Vz_F_obs / HL (half-life): mice, oral 250 mg/kg; for half-life: HL (half-life)
[5] = Pharmacokinetic study in rats; settings: for AUC / AUC(0-inf) / AUC(0-t) / CL/F / MRT inf / MRT last / Cmax / half-life / Tmax / AUC_% Extrap_obs / Vz_F_obs / HL (half-life): rat; for AUC / AUC(0-inf) / AUC(0-t) / CL/F / MRT inf / MRT last / Cmax / half-life / Tmax / HL (half-life): 250 mg/kg; for half-life: HL (half-life)
CHIKV [6] = assay: CHIKV plaque assay in Vero cells; settings: Chikungunya virus, read-out: EC50, CHIKV inhibition
CHIKV nsP1 = CHIKV nsP1 (Chikungunya virus, UniProt Q8JUX6); assay: MTase-Glo methyltransferase assay; settings: At 50 µM (method: 100 µM), purified CHIKV nsP1
Chain of CHIKV nsP1 (Q8JUX6 1-535): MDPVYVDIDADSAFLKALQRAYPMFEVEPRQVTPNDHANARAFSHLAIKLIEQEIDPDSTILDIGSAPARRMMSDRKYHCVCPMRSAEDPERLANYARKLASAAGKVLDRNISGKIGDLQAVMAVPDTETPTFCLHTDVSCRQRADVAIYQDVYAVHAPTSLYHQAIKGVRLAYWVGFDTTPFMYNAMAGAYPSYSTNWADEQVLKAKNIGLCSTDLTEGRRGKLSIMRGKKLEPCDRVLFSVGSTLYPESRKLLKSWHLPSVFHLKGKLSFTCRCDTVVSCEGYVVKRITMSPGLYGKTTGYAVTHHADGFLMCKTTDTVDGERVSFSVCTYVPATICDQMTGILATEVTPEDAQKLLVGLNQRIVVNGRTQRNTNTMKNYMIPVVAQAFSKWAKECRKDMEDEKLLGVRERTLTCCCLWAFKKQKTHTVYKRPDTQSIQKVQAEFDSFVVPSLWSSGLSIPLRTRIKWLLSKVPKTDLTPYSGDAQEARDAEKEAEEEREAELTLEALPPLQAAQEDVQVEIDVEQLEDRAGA

CHIKV [7] = assay: CHIKV plaque assay in HEK 293 cells; settings: Chikungunya virus, HEK293, read-out: EC50, CHIKV inhibition
C57BL/6 mice [8] = assay: Single-dose acute oral toxicity in mice; settings: for Activity scores / Kidney histology / Liver (ALT) and kidney (creatinine) biomarkers / Survival and clinical signs over 7 days: single oral dose 250 or 500 mg/kg; for Liver (ALT) and kidney (creatinine) biomarkers: days 1, 3, 7; for Survival and clinical signs over 7 days / Tolerability of a single oral dose: mice; for Liver histology: single oral dose, day 1, also seen in vehicle-treated animals; for Tolerability of a single oral dose: up to 500 mg/kg
[9] = Cytotoxicity by MTS assay in HEK 293 cells; settings: human
CHIKV [10] = assay: Cell-based anti-attachment assay in Vero cells; settings: 10 µM; for CHIKV inhibition, post-incubation or throughout / CHIKV inhibition, pre-treatment, pre-incubation or co-incubation: Vero, MOI 0.1, 24 hpi; for Effect of compound pre-treatment on viral replication: cells treated 1 h before virus
[11] = Cytotoxicity assay alongside the replicon assay; settings: hamster
Sprague Dawley rats = assay: ALT and Cr levels in rat plasma samples of the PK study; settings: single oral 250 mg/kg, plasma at 24, 48, 72 h
CHIKV [12] = assay: Time-of-addition and time-of-removal assay in Vero cells; settings: 10 µM, MOI 1
CHIKV replicon = CHIKV replicon inhibition assay (Renilla luciferase) in BHK-21 cells; settings: Chikungunya virus, BHK-21, 24 h, read-out: EC50, CHIKV replicon inhibition (printed IC50 in Figure 2g,h and b75)
[13] = Peak plasma concentration (Cmax)
[14] = Sprague Dawley, in vivo, po, Cmax, oral 250 mg/kg, mean ± SD
[15] = Sprague Dawley, in vivo, po, oral 250 mg/kg, mean ± SD
[16] = Sprague Dawley, in vivo, po, Peak plasma concentration (Cmax), rats, oral 250 mg/kg
[17] = Sprague Dawley, in vivo, po, Tmax, oral 250 mg/kg, mean ± SD

NC(=O)c1ncn([C@@H]2O[C@H](CO)[C@@H](O)[C@H]2O)n1 [ribavirin, Ribavirin, reference compound]
Activity scores / behaviour (C57BL/6 mice [1]): maintained normal behaviour and activity
Creatinine (C57BL/6 mice [1]): remained within normal limits
Histopathology of liver tissues (C57BL/6 mice [1]): No pathological abnormalities were observed
Histopathology of renal tissues (C57BL/6 mice [1]): No pathological abnormalities were observed
PMN infiltration in footpad (H&E), day 1 (CHIKV [2]): reduced PMN infiltration on day 1
PMN infiltration in footpad (H&E), days 2 and 3 (CHIKV [2]): PMN infiltration persisting at moderate levels

O=c1oc2ccccc2c(O)c1C(c1ccc(Cl)cc1)c1c(O)c2ccccc2oc1=O [compound 4, 3,3′-((4-chlorophenyl)methylene)bis(4-hydroxy-2H-chromen-2-one)]
Inhibition of dengue virus NS5 methyltransferase [3]: inhibitors of the dengue virus NS5 methyltransferase (MTase)
AUC [4]: 2750 µg·h/mL
AUC(0-inf) [4]: 2750 ± 927 µg·h/mL
AUC(0-t) [4]: 2750 ± 927 µg·h/mL
CL/F [4]: 1.67 mL/min/kg
MRT inf [4]: 10.1 ± 0.366 h
MRT last [4]: 10.1 ± 0.356 h
Tmax [4]: 6 h
Cmax ([4]; Cmax, mean ± SD): 197 ± 77 µg/mL
half-life ([4]; mean ± SD): 3.42 h
Cmax [4, 13]: 197 µg/mL
Time within which plasma concentration fell below EC90 and EC50 [4]: 24 to 48 h
AUC_% Extrap_obs ([4]; mean ± SD): 0.018 ± 0.014%
Vz_F_obs ([4]; mean ± SD): 0.494 ± 0.200 L/kg
HL (half-life) ([4]; mean ± SD): 3.422 ± 0.419 h
AUC ([5]; Sprague Dawley, in vivo, po): 4180 µg·h/mL
AUC(0-inf) ([5]; Sprague Dawley, in vivo, po): 4440 ± 1730 µg·h/mL
AUC(0-t) ([5]; Sprague Dawley, in vivo, po): 4180 ± 1640 µg·h/mL
CL/F ([5]; Sprague Dawley, in vivo, po): 1.08 mL/min/kg
MRT inf ([5]; Sprague Dawley, in vivo, po): 26.77 ± 0.127 h
MRT last ([5]; Sprague Dawley, in vivo, po): 22.2 ± 0.801 h
Cmax [5, 14]: 133 ± 40.8 µg/mL
half-life [5, 15]: 16.6 h
Cmax [5, 16]: 133 µg/mL
Tmax [5, 17]: 10.7 h
AUC_% Extrap_obs ([5]; oral 250 mg/kg, mean ± SD): 6.119 ± 0.999%
Vz_F_obs ([5]; oral 250 mg/kg, mean ± SD): 1.596 ± 0.946 L/kg
HL (half-life) ([5]; oral 250 mg/kg, mean ± SD): 16.649 ± 1.601 h
Tmax ([5]; oral 250 mg/kg, mean ± SD): 10.667 ± 2.309 h
EC50 (CHIKV [6]): 2.9 ± 0.25 µM
nsP1 methyltransferase enzymatic activity vs DMSO control (CHIKV nsP1): significantly inhibited enzymatic activity
EC50 (CHIKV [7]): 4.65 ± 0.56 µM
Activity scores (C57BL/6 mice [8]): no significant difference in activity scores
Kidney histology (C57BL/6 mice [8]): remained within normal limits
Liver (ALT) and kidney (creatinine) biomarkers (C57BL/6 mice [8]): remained within normal limits
Survival and clinical signs over 7 days (C57BL/6 mice [8]): All animals survived
Liver histology (C57BL/6 mice [8]): Mild, transient hepatocellular vacuolization
Tolerability of a single oral dose (C57BL/6 mice [8]): well tolerated
CC50 at 2 days [9]: 44.4 ± 1.48 µM
CHIKV inhibition, post-incubation or throughout (CHIKV [10]): robust antiviral activity was observed
CHIKV inhibition, pre-treatment, pre-incubation or co-incubation (CHIKV [10]): Neither compound exhibited significant inhibition
Effect of compound pre-treatment on viral replication (CHIKV [10]): enhanced the viral replication
CC50 [11]: 79.87 ± 0.4 µM
ALT and Cr levels (Sprague Dawley rats): within normal limits
Time-of-addition time-points significantly different from DMSO control (CHIKV [12]): 1–6 hpi
Viral titres in time-of-addition (TOA) assay (CHIKV [12]): significantly reduced viral titres when added up to 9 hpi
PMN infiltration in footpad (H&E), day 1 (CHIKV [2]): reduced PMN infiltration on day 1
PMN infiltration in footpad (H&E), days 2 and 3 (CHIKV [2]): PMN infiltration persisting at moderate levels
CHIKV titres in footpad tissues, plaque assay, day 2 post-infection (CHIKV [2]; single oral 250 mg/kg): significantly reduced CHIKV titres in footpad tissues
Systemic viremia (plasma CHIKV titres, plaque assay) (CHIKV [2]; single oral 250 mg/kg): no marked reduction in systemic viremia
Foot swelling and activity vs vehicle group (CHIKV [2]): moderate improvement in foot swelling and activity
EC50 (CHIKV replicon): 5.04 ± 0.23 µM

O=c1oc2ccccc2c(O)c1C(c1cccc(Cl)c1)c1c(O)c2ccccc2oc1=O [compound 3, 3,3′-((3-chlorophenyl)methylene)bis(4-hydroxy-2H-chromen-2-one)]
Inhibition of dengue virus NS5 methyltransferase [3]: inhibitors of the dengue virus NS5 methyltransferase (MTase)
AUC [4]: 909 µg·h/mL
AUC(0-inf) [4]: 909 ± 835 µg·h/mL
AUC(0-t) [4]: 909 ± 835 µg·h/mL
CL/F [4]: 18.3 mL/min/kg
MRT inf [4]: 10.6 ± 0.728 h
MRT last [4]: 10.5 ± 0.646 h
Tmax [4]: 10 ± 3.46 h
Cmax ([4]; Cmax, mean ± SD): 68.9 ± 64.1 µg/mL
half-life ([4]; mean ± SD): 4.16 h
Cmax [4, 13]: 68.9 µg/mL
Time within which plasma concentration fell below EC90 and EC50 [4]: 24 to 48 h
AUC_% Extrap_obs ([4]; mean ± SD): 0.124 ± 0.185%
Vz_F_obs ([4]; mean ± SD): 7.963 ± 11.841 L/kg
HL (half-life) ([4]; mean ± SD): 4.163 ± 0.941 h
AUC ([5]; Sprague Dawley, in vivo, po): 1090 µg·h/mL
AUC(0-inf) ([5]; Sprague Dawley, in vivo, po): 1100 ± 633 µg·h/mL
AUC(0-t) ([5]; Sprague Dawley, in vivo, po): 1090 ± 646 µg·h/mL
CL/F ([5]; Sprague Dawley, in vivo, po): 5.65 mL/min/kg
MRT inf ([5]; Sprague Dawley, in vivo, po): 14.5 ± 5.73 h
MRT last ([5]; Sprague Dawley, in vivo, po): 12.9 ± 5.73 h
Cmax [5, 14]: 80.7 ± 39.9 µg/mL
half-life [5, 15]: 7.92 h
Cmax [5, 16]: 80.7 µg/mL
Tmax [5, 17]: 9.33 h
AUC_% Extrap_obs ([5]; oral 250 mg/kg, mean ± SD): 2.128 ± 3.659%
Vz_F_obs ([5]; oral 250 mg/kg, mean ± SD): 5.672 ± 8.054 L/kg
HL (half-life) ([5]; oral 250 mg/kg, mean ± SD): 7.922 ± 6.558 h
Tmax ([5]; oral 250 mg/kg, mean ± SD): 9.333 ± 2.309 h
Time within which plasma concentration fell below EC90 and EC50 ([5]; rats, oral 250 mg/kg): 24 to 48 h
Serum ALT by day 3 vs vehicle and ribavirin groups (C57BL/6 mice [1]; 250 mg/kg oral BID for 3 days): markedly elevated
Activity scores / behaviour (C57BL/6 mice [1]): activity scores increased by day 2
Creatinine (C57BL/6 mice [1]): remained within normal limits
Histopathology of liver tissues (C57BL/6 mice [1]): hepatocellular vacuolization and mononuclear infiltration
Histopathology of renal tissues (C57BL/6 mice [1]): proximal tubular edema and vacuolization
EC50 (CHIKV [6]): 2.85 ± 0.42 µM
nsP1 methyltransferase enzymatic activity vs DMSO control (CHIKV nsP1): significantly inhibited enzymatic activity
EC50 (CHIKV [7]): 3.08 ± 0.45 µM
Serum ALT on day 1 (C57BL/6 mice [8]; single oral dose 500 mg/kg, not statistically significant, resolved): slight increase
Activity scores (C57BL/6 mice [8]): no significant difference in activity scores
Kidney histology (C57BL/6 mice [8]): remained within normal limits
Liver (ALT) and kidney (creatinine) biomarkers (C57BL/6 mice [8]): remained within normal limits
Survival and clinical signs over 7 days (C57BL/6 mice [8]): All animals survived
Liver histology (C57BL/6 mice [8]): Mild, transient hepatocellular vacuolization
Tolerability of a single oral dose (C57BL/6 mice [8]): well tolerated
CHIKV inhibition, post-incubation or throughout (CHIKV [10]): robust antiviral activity was observed
CHIKV inhibition, pre-treatment, pre-incubation or co-incubation (CHIKV [10]): Neither compound exhibited significant inhibition
Effect of compound pre-treatment on viral replication (CHIKV [10]): enhanced the viral replication
CC50 [11]: 100.5 ± 0.11 µM
ALT and Cr levels (Sprague Dawley rats): within normal limits
Time-of-addition time-points significantly different from DMSO control (CHIKV [12]): 3–9 hpi
Viral replication in time-of-removal (TOR) assay (CHIKV [12]): viral replication resumed upon compound removal at 12 hpi
Viral titres in time-of-addition (TOA) assay (CHIKV [12]): significantly reduced viral titres when added up to 9 hpi; also recorded: persisted when added as late as 12 hours post-infection
Body weight (CHIKV [2]; CHIKV-infected mice, single oral 250 mg/kg): greater body weight loss than other groups
PMN infiltration in footpad (H&E), day 1 (CHIKV [2]): reduced PMN infiltration on day 1
PMN infiltration in footpad (H&E), days 2 and 3 (CHIKV [2]): PMN infiltration persisting at moderate levels
CHIKV titres in footpad tissues, plaque assay, day 2 post-infection (CHIKV [2]; single oral 250 mg/kg): significantly reduced CHIKV titres in footpad tissues
Footpad swelling, tissue viral loads and systemic viremia (discussion summary) (CHIKV [2]; single oral 250 mg/kg): significantly reduced footpad swelling, viral loads in infected tissues, and systemic viremia
Infectious viral titres in footpad tissue, plaque titration, day 3 (CHIKV [2]; single oral 250 mg/kg): maintaining efficacy through day 3 howbeit not significantly
Systemic viremia (plasma CHIKV titres, plaque assay) (CHIKV [2]; single oral 250 mg/kg): no marked reduction in systemic viremia
Viral RNA levels in footpad tissue (RT-qPCR) (CHIKV [2]; single oral 250 mg/kg): marked reduction by day 3
Foot swelling and activity vs vehicle group (CHIKV [2]): moderate improvement in foot swelling and activity
EC50 (CHIKV replicon): 6.64 ± 0.86 µM
